According to patent publication US5844001A, “Combination platinum chemotherapeutic/antiestrogen therapy for human cancers” (Research Development Foundation, priority 1994, dated 1998):
Like-named read-outs stand apart in the source and are kept apart here. One block for each compound: values may come before it.

Assays:
[1] = system: UM-SCC-10B head and neck carcinoma cells; experiment: Development of cisplatin resistance with or without tamoxifen, UM-SCC-10B (clonogenic assay); format: cell-based, human; conditions: for effect on development of cisplatin resistance: tamoxifen present during selection, in words
Experimental: (§1) The UM-SCC-10B and UM-SCC-5 cell lines were derived from human squamous cell carcinomas of the in head and neck region. Cells were cultured at 37° C. in humidified 5% CO2 in 150 cm^2 flasks (Corning, Corning, N.Y.) with RPMI 1640 medium (Mediatech Inc., Herndon, Va.) containing 10% fetal bovine serum (Gemini Bioproducts Inc., Calabasas, Calif.), 2 mM L-glutamine, 100 units/ml of penicillin and 100 μg/ml of streptomycin sulfate. The sensitivity of the UM-SCC-10B and UM-SCC-5 cell lines and their cDDP-resistant variants to cDDP, TAM and the combination of both agents was tested by colony forming assay. Single-cell suspension were plated into 60 mm tissue culture dishes (Corning) at 300 cells per dish. Following drug exposure, the cultures were washed twice with PBS to remove cDDP, 5 ml of fresh medium was added, and they were incubated for 13-15 days to allow formation of colonies. Colonies were fixed with methanol, stained with Giemsa stain for 60 minutes, and counted manually.
(§2) Cells were cultured in drug-free medium for two weeks prior to being tested for drug sensitivity.

[2] = system: UM-SCC-10B cells; experiment: Colony forming assay, parental UM-SCC-10B; format: cell-based, human
Experimental: (§3) The UM-SCC-10B and UM-SCC-5 cell lines were derived from human squamous cell carcinomas of the in head and neck region. […] The sensitivity of the UM-SCC-10B and UM-SCC-5 cell lines and their cDDP-resistant variants to cDDP, TAM and the combination of both agents was tested by colony forming assay. Single-cell suspension were plated into 60 mm tissue culture dishes (Corning) at 300 cells per dish. […] Colonies were fixed with methanol, stained with Giemsa stain for 60 minutes, and counted manually.
(§4) Median effect analysis was used to assess the interaction between cDDP and TAM using a schedule of one hour exposure to cDDP and continuous exposure to TAM. After seeding the cells into 60 mm tissue culture dishes at 300 cells per dish in fresh medium and allowing 5 hours for them to attach, TAM was added. For the combined treatment, cDDP was added to the dishes 24 hours after seeding the cells. […] After incubation the dishes were washed twice with phosphate-buffered saline and fresh medium containing the appropriate concentration of TAM was added. In synergy experiments, dose-response curves for the single agents were initially generated. The extend of the combined treatment was then analyzed by the isobole method for a combination of cDDP and TAM from the equation

[3] = system: UM-SCC-5 head and neck carcinoma cells; experiment: Development of cisplatin resistance with or without tamoxifen, UM-SCC-5 (clonogenic assay); format: cell-based, human
Experimental: as §1, §2

[4] = system: UM-SCC-5 cells; experiment: Colony forming assay, parental UM-SCC-5; format: cell-based, human
Experimental: as §3, §4

[5] = system: T-289 melanoma cells; experiment: Development of DDP resistance with or without TAM, T-289 (colony formation); format: cell-based, human
[6] = system: melanoma; experiment: Clinical trial: tumor response to DDP alone, then TAM/DDP after DDP resistance; format: in vivo, human (patients)
Text: A complete response was defined as the complete disappearance of all evidence of disease for at least 4 weeks. A partial response was a decrease in the mean diameter of the target lesion by 50% or more lasting at least 4 weeks. A mixed response was a decrease in the diameter of some target lesions of 50% or more while others remained stable or increased in size. A stable disease was defined as a <50% decrease or <25% increase in the size of target lesions for at least 2 months without the growth or appearance of other lesions. A progressive disease was defined as an increase in the size of target lesions by 25% or more.
Patients were retreated every 3 weeks. […] Subsequent patients received an ondansetron-based regimen.

[7] = human, in vivo
Text: (§5) Entry requirements included histologically documented melanoma, measurable disease, signed informed consent, and no anti-tumor therapy during the previous 4 weeks. Patients were required to have normal hematologic and renal function, an ECOG performance status of 0-2 and an estimated survival of at least 3 months. Patients with a previous history of deep venous thrombosis or pulmonary embolism were excluded.
(§6) Pre-treatment hydration consisted of 1 liter of 5% dextrose/0.45%saline containing 20 mEq of potassium chloride and 2 g magnesium sulfate administered over 4 hours. […] Patients were retreated every 3 weeks. On cycles where TAM was administered, 40 mg p.o. four doses per day were given on day 1 followed by 20 mg p.o. daily thereafter. The initial 7 patients were treated with a combination of lorazepam, metaclopramide, benadryl and dexamethasone to control nausea and vomiting. Subsequent patients received an ondansetron-based regimen.

[8] = Toxicities with DDP or DDP/TAM treatment (clinical trial); conditions: in words
Text: as §5, §6

[9] = system: cell lines of human origin; experiment: Synergy of TAM and DDP: timing and mechanism observations; format: cell-based
[10] = system: melanoma; conditions: 203 treated melanoma patients; cited from earlier work
[11] = Steady-state plasma concentration of TAM; format: in vivo, human (patients); conditions: predicted from in vitro data
Experimental: The design of the study of Example 1 itself was biased against response and the response rate in other settings would be higher. […] Chronic administration of TAM at 10 mg p.o. twice a day produces steady-state plasma concentrations in the range of 0.29 μM. However, the in vitro data predicts that plasma concentrations of more than 0.5 μM will be necessary in DDP-resistant patients.

[12] = read-out: IC50, one hour exposure to cisplatin
[13] = number of patients, DDP n=24, TAM/DDP n=20
[14] = Homo sapiens, read-out: IC50, continuous tamoxifen exposure

Compound: N.N.[Cl][Pt][Cl] [cisplatin, cis-diamminedichloroplatinum (II)]
IC50 ([1]; UM-SCC-10B selected in cisplatin, one hour cisplatin exposure, read-out: IC50 after the fifteenth selection): 40.1 ± 1.2 µM
IC50 [2, 12]: 6.5 ± 0.6 µM
IC50 ([3]; UM-SCC-5 selected in cisplatin, one hour cisplatin exposure, read-out: IC50 after the fifteenth selection): 20.1 ± 1.2 µM
IC50 [4, 12]: 7.2 ± 1.5 µM
time at which DDP resistance became apparent ([5]; T-289 selection): 200 days
duration of complete response ([6]; DDP alone): more than 15 months
duration of partial response (stable off treatment) ([6]; DDP alone, one patient): ≥ 6 months
time to progression of patient with partial response ([6]; DDP alone, the other patient): 4 months
Mixed Response ([6]; number of patients): 0 patients
Progressive Disease ([6]; number of patients): 19 patients
Stable Disease ([6]; number of patients): 2 patients
Complete Response [6, 13]: 1 patients
Partial Response [6, 13]: 2 patients
Complete Response ([6]; number of patients, DDP n=24, TAM/DDP n=20, listed as DDP): One
Progressive Disease ([6]; number of patients, listed as DDP): 17 patients
Complete Response (%) ([6]; percent of patients): 4%
Partial Response (%) ([6]; percent of patients): 8%

nausea and vomiting [7]: markedly reduced nausea and vomiting
Compound: Cc1nccn1CC1CCc2c(c3ccccc3n2C)C1=O (centres unmarked) [ondonsetron, ondansetron]

Compound: CC/C(=C(\c1ccccc1)c1ccc(OCCN(C)C)cc1)c1ccccc1 [tamoxifen]
reduction of slope of regression line by tamoxifen ([1]; UM-SCC-10B): more than 40%
effect on development of cisplatin resistance ([1]; UM-SCC-10B): delayed the emergence of cisplatin resistance significantly
effect on development of cisplatin resistance ([1]; UM-SCC-10B, listed as TAM): delay the development of DDP resistance
nephrotoxicity [8]: uncommon and unaffected by the administration of TAM
toxicity on addition of TAM to single agent DDP [8]: No increased toxicity
nausea and vomiting ([8]; during hospitalization for ondansetron): did not increase nausea or vomiting
IC50 [2, 14]: 3.56 ± 0.41 µM
effect on slope for emergence of cisplatin resistance ([3]; UM-SCC-5, tamoxifen present during selection, in words): no effect
synergy with DDP when TAM is added after DDP ([9]; TAM added up to 48 hours after end of 1 hour DDP exposure): can produce synergy with DDP
effect of tamoxifen on known mechanisms of cisplatin resistance ([9]; drug uptake, glutathione or metallothionein levels, DNA intrastrand adduct formation or repair): not due to an effect of tamoxifen on the known mechanisms of cisplatin resistance
response rate, single agent TAM therapy [10]: 6%
IC50 [4, 14]: 3.22 ± 0.54 µM
effect on development of DDP resistance ([5]; T-289, TAM given concurrently, in words): delay the development of DDP resistance
plasma concentration predicted necessary in DDP-resistant patients [11]: more than 0.5 μM
